# Assay results: the supplement of paper PMC8149375
# Tests used:
# Details in all cases: treatment: drug alone; 5 days
# [1] = system: 769-P; assay: AUC of dose-response viability curve, drug alone (arbitrary (AUC of normalised viability)); higher = less growth inhibition
# Procedure: (§1)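 Primary HTS: 8 RCC cell lines treated with 8 doses (up to 10 uM) of each library drug alone for 5 days; viability read by CellTiter-Glo and normalised to DMSO. GI50 was fitted with XLfit (4-parameter), AUC is the area under the dose-response curve, and minimum viability is the lowest fraction of DMSO viability across doses.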
# [2] = system: UO-31; assay: as above
# Procedure: as §1
# [3] = system: ACHN; assay: as above
# Procedure: as §1
# [4] = system: SN12C; assay: as above
# Procedure: as §1
# [5] = system: TK-10; assay: as above
# Procedure: as §1
# [6] = system: 786-O; assay: as above
# Procedure: as §1
# [7] = system: CAKI-1; assay: as above
# Procedure: as §1
# [8] = system: A498; assay: as above
# Procedure: as §1
# [9] = system: 769-P; assay: minimum viability across doses, drug alone, relative to DMSO (fraction); higher = less growth inhibition
# Procedure: as §1
# [10] = system: UO-31; assay: as above
# Procedure: as §1
# [11] = system: ACHN; assay: as above
# Procedure: as §1
# [12] = system: SN12C; assay: as above
# Procedure: as §1
# [13] = system: TK-10; assay: as above
# Procedure: as §1
# [14] = system: 786-O; assay: as above
# Procedure: as §1
# [15] = system: CAKI-1; assay: as above
# Procedure: as §1
# [16] = system: A498; assay: as above
# Procedure: as §1
# [17] = system: 769-P; assay: GI50, drug alone; higher = less potent
# Procedure: as §1
# [18] = system: UO-31; assay: GI50, drug alone; higher = less potent
# Procedure: as §1
# [19] = system: ACHN; assay: GI50, drug alone; higher = less potent
# Procedure: as §1
# [20] = system: SN12C; assay: GI50, drug alone; higher = less potent
# Procedure: as §1
# [21] = system: TK-10; assay: GI50, drug alone; higher = less potent
# Procedure: as §1
# [22] = system: 786-O; assay: GI50, drug alone; higher = less potent
# Procedure: as §1
# [23] = system: CAKI-1; assay: GI50, drug alone; higher = less potent
# Procedure: as §1
# [24] = system: A498; assay: GI50, drug alone; higher = less potent
# Procedure: as §1
SMILES,"GI50, drug alone [19] [nM]","GI50, drug alone [22] [nM]",AUC of dose-response viability curve [1],AUC of dose-response viability curve [2],AUC of dose-response viability curve [3],AUC of dose-response viability curve [4],AUC of dose-response viability curve [5],AUC of dose-response viability curve [6],AUC of dose-response viability curve [7],AUC of dose-response viability curve [8],minimum viability across doses [9],minimum viability across doses [10],minimum viability across doses [11],minimum viability across doses [12],minimum viability across doses [13],minimum viability across doses [14],minimum viability across doses [15],minimum viability across doses [16],"GI50, drug alone [17] [nM]","GI50, drug alone [18] [nM]","GI50, drug alone [20] [nM]","GI50, drug alone [21] [nM]","GI50, drug alone [23] [nM]","GI50, drug alone [24] [nM]"
CCS(=O)(=O)Nc1ccc2c(c1)/C(=C(/Nc1ccc(CN3CCCCC3)cc1)c1ccccc1)C(=O)N2 [Hesperadin],111,63.9,2.53,3.32,1.63,1.86,2.46,1.54,1.85,3.72,0.0547,0.0115,0.00749,0.00306,0.0523,0.0109,0.0394,0.0284,1180,2490,199,1460,189,2500
O=C(Nc1cc(C(F)(F)F)cc(C(F)(F)F)c1)c1cc(Cl)ccc1O [IMD 0354],943,412,2.71,4.73,2.4,2.67,2.4,2.03,2.8,3.46,0.0108,0.019,0.00484,0.00716,0.0653,0.00771,0.036,0.0128,1290,2960,1350,1220,1080,1590
Cc1ccc(NC(=O)c2ccc(CN3CCN(C)CC3)cc2)cc1Nc1nccc(-c2cccnc2)n1 [Imatinib (Gleevec)],> 10000,> 10000,3.23,4.67,3.41,3.06,3.07,2.36,3.35,3.83,0.858,1.03,0.802,0.77,0.829,0.514,0.891,0.919,> 10000,> 10000,> 10000,> 10000,> 10000,> 10000
O=C1Nc2ccccc2/C1=C1/Nc2ccccc2C1=O [Indirubin],> 10000,> 10000,3.19,2.68,2.9,2.66,2.6,2.32,2.94,3.26,0.811,0.655,0.778,0.703,0.635,0.529,0.762,0.827,> 10000,> 10000,> 10000,> 10000,> 10000,> 10000
CCCNC(=O)Nc1ccc(Oc2ncnc3cc(OC)c(OC)cc23)cc1Cl [KRN 633],> 10000,3930,3.34,3.91,2.92,2.93,2.8,2.11,3.24,4.07,0.861,0.734,0.742,0.718,0.664,0.366,0.817,0.974,> 10000,> 10000,> 10000,> 10000,> 10000,> 10000
O=C(c1ccc(/C=C/c2n[nH]c3ccccc23)cc1)N1CCNCC1 [KW 2449],2120,> 10000,3.12,4.33,2.67,3.03,3.23,3.77,2.93,3.72,0.549,0.86,0.215,0.241,0.645,0.814,0.268,0.828,> 10000,> 10000,4760,> 10000,3540,> 10000

# Now from value to compound, other results behind:
"GI50, drug alone [19] [nM]","GI50, drug alone [22] [nM]",SMILES,AUC of dose-response viability curve [1],AUC of dose-response viability curve [2],AUC of dose-response viability curve [3],AUC of dose-response viability curve [4],AUC of dose-response viability curve [5],AUC of dose-response viability curve [6],AUC of dose-response viability curve [7],AUC of dose-response viability curve [8],minimum viability across doses [9],minimum viability across doses [10],minimum viability across doses [11],minimum viability across doses [12],minimum viability across doses [13],minimum viability across doses [14],minimum viability across doses [15],minimum viability across doses [16],"GI50, drug alone [17] [nM]","GI50, drug alone [18] [nM]","GI50, drug alone [20] [nM]","GI50, drug alone [21] [nM]","GI50, drug alone [23] [nM]","GI50, drug alone [24] [nM]"
262,116,COc1ccc(S(=O)(=O)N(C(C)=O)c2ccccc2/C=C/c2cc[n+]([O-])cc2)cc1 [HMN-214],2.36,2.75,2.14,2.47,2.14,1.3,2.1,2.36,0.0968,0.00366,0.127,0.167,0.285,0.00365,0.182,0.119,541,455,714,694,293,378
15.2,6.65,CC(C)n1nc(-c2ccc3oc(N)nc3c2)c2c(N)ncnc21 [INK 128],1.34,0.778,0.901,1.27,0.931,0.69,1.12,1.63,0.0864,0.00678,0.0484,0.0865,0.0249,0.00552,0.0368,0.104,50.4,25.2,39,12,34.4,71
> 10000,8420,CS(=O)(=O)O.Cc1ccc(NC(=O)c2ccc(CN3CCN(C)CC3)cc2)cc1Nc1nccc(-c2cccnc2)n1 [Imatinib Mesylate],3.45,5.21,3.71,3.55,3.25,2.83,3.61,3.89,0.898,1.1,0.855,0.775,0.861,0.399,0.965,0.973,> 10000,> 10000,> 10000,> 10000,> 10000,> 10000
